Results from US9771378B2 (Denali Therapeutics, Inc., priority 2014, dated 2017).

Tested on: Aβ42 (human neuroglioma H4 cells expressing human wild type APP751)
Assay: In vitro cell screening assay with sandwich ELISA quantification of Aβ42 peptide
Format: cell-based
Conditions: H4 cells stably expressing human wild type APP751; Pro293 chemically defined medium; compounds 0.003-10 μM; incubated overnight (16-18 h); supernatant Aβ42 by sandwich ELISA; normalized to DMSO and DAPT; read-out: Aβ42 H4 Prot Fre IC50
How it was run: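 Aβ42 in supernatants was quantified by sandwich ELISA with C-terminal-specific capture and 4G8-HRP detection, absorbance at 450 nm. Stable APP751-expressing human H4 cells received compound at 0.003-10 μM (0.33% DMSO) overnight (16-18 h). IC50 was derived from percent-of-DMSO-control data by nonlinear variable-slope fit.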

Row | Structure (SMILES) | IC50 [nM]
1 | COc1nc(Nc2ncc3c(n2)N(C)C(c2cc(F)cc(F)c2)CO3)ccc1-n1cnc(C)c1 (single isomer, unassigned; (-)) [Example 179A] | > 3000
2 | COc1cc(Nc2ncc3c(n2)N(C)C2(CCOCC2)CO3)ccc1-n1cnc(C)c1 [Example 273] | 111
3 | Cc1cn(-c2ncc(Nc3ncc4c(n3)N(C)C(c3cc(F)cc(F)c3)CO4)cc2Cl)cn1 (single isomer, unassigned; (-)) [Example 210B] | 2340
4 | Cc1cn(-c2ccc(Nc3ncc4c(n3)N(C)C(c3cc(F)cc(F)c3)CO4)cc2OC(F)(F)F)cn1 (single isomer, unassigned; (-)) [Example 223A] | > 3000
5 | COc1cc(Nc2ncc3c(n2)N(C)C(C2(C(F)(F)F)CC2)CO3)ccc1-n1cnc(C)c1 (single isomer, unassigned; (+)) [Example 245B] | 22
6 | COc1cc(Nc2ncc3c(n2)N(C)C(Cc2ccccc2)CO3)ccc1-c1ccnc(C)c1 (single isomer, unassigned; (-)) [Example 68B] | 229
7 | COc1cc(Nc2ncc3c(n2)N(C)C(c2cc(F)cc(F)c2)CO3)cnc1-n1cnc(C#N)c1 (single isomer, unassigned; (-)) [Example 211B, (−)-1-(5-((7-(3,5-difluorophenyl)-8-methyl-7,8-dihydro-6H-pyrimido [5,4-b] [1, 4]oxazin-2-yl)amino)-3-methoxypyridin-2-yl)-1H-imidazole-4-carbonitrile] | > 3000
8 | COc1cc(Nc2ncc3c(n2)N(C)C(c2ccc(F)cc2)CO3)ccc1-n1cnc(C)c1 (racemic) [Example 49] | 36
9 | Cc1cn(-c2ccc(Nc3ncc4c(n3)N(C)C(c3cc(F)ccc3C(F)(F)F)CO4)cc2F)cn1 (single isomer, unassigned; (+)) [Example 104B] | 77
10 | COc1nc(Nc2ncc3c(n2)N(C)C(c2cc(F)cc(F)c2)CO3)ccc1-n1cnc(C)c1 (single isomer, unassigned; (+)) [Example 179B] | 287
11 | Cc1cn(-c2ccc(Nc3ncc4c(n3)N(C)C(c3cc(F)cc(F)c3)CO4)cc2C#N)cn1 (single isomer, unassigned; (+)) [Example 203A, (+)-5-((7-(3,5-difluorophenyl)-8-methyl-7,8-dihydro-6H-pyrimido [5,4-b] [1, 4]oxazin-2-yl)amino)-2-(4-methyl-1H-imidazol-1-yl) benzonitrile] | 16
12 | COc1cc(Nc2ncc3c(n2)N(C)C2(CC2)CO3)ccc1-n1cnc(C)c1 [Example 257] | 49
13 | COc1cc(Nc2ncc3c(n2)N(C)C(c2ccc(F)cc2F)CO3)cnc1-n1cnc(C)c1 (single isomer, unassigned; (+)) [Example 186A] | 18
14 | COc1cc(Nc2ncc3c(n2)N(C)C(C)CO3)ccc1-n1cnc(Cl)c1 (single isomer, unassigned; (+)) [Example 202B] | 63
15 | Cc1cc(-c2ccc(Nc3ncc4c(n3)N(C)C(c3cc(F)c(F)c(F)c3)CO4)cc2F)ccn1 (single isomer, unassigned; (-)) [Example 36B] | 1250
16 | COc1cc(Cl)c(C2COc3cnc(Nc4ccc(-n5cnc(C)c5)c(OC)c4)nc3N2C)cc1Cl (single isomer, unassigned; (+)) [Example 174B] | 32
17 | COc1cc(Nc2ncc3c(n2)N(C)C(c2ccc(C(F)(F)F)cc2C(F)(F)F)CO3)ccc1-n1cnc(C)c1 (single isomer, unassigned; (-)) [Example 168A] | 566
18 | COc1cc(Nc2ncc3c(n2)N(C)C(c2ccc(F)cc2Cl)CO3)ccc1-n1cnc(C)c1 (single isomer, unassigned; (+)) [Example 93B] | 32
19 | COc1cc(Nc2ncc3c(n2)N(C)C(c2cc(F)cc(F)c2)CO3)cnc1-n1cnc(C(F)(F)F)c1 (single isomer, unassigned; (+)) [Example 206A] | 27
20 | Cc1cn(-c2ccc(Nc3ncc4c(n3)N(C)C(c3cc(F)c(F)c(F)c3)CO4)cc2F)cn1 (racemic) [Example 38] | 32
21 | COc1cc(Nc2ncc3c(n2)N(C)C(C(F)(F)F)CO3)ccc1-n1cnc(C)n1 (single isomer, unassigned; (-)) [Example 242A] | 78
22 | Cc1cc(-c2ccc(Nc3ncc4c(n3)N(C)C(c3ccc(F)cc3Cl)CO4)cc2F)ccn1 (single isomer, unassigned; (-)) [Example 102B] | 1350
23 | COc1cc(Nc2ncc3c(n2)N(C)C(C2CCC(F)(F)CC2)CO3)cnc1-c1cnn(C)c1 (single isomer, unassigned; (+)) [Example 231A] | 342
24 | COc1cc(Nc2ncc3c(n2)N(C)C(c2cc(F)c(F)cc2Cl)CO3)ccc1-n1cnc(C)c1 (single isomer, unassigned; (+)) [Example 103A] | 19
25 | COc1cc(Nc2ncc3c(n2)N(C)C(c2cc(F)cc(F)c2)CO3)ccc1C#N (single isomer, unassigned; (-)) [Example 237A, (−)-4-((7-(3,5-difluorophenyl)-8-methyl-7,8-dihydro-6H-pyrimido [5,4-b] [1, 4]oxazin-2-yl)amino)-2-methoxybenzonitrile] | > 3000

Row | Structure (SMILES) | IC50 [nM]
26 | CN1c2nc(Nc3ccc(C#N)cc3)ncc2OCC1C(F)(F)F (single isomer, unassigned; (-)) [Example 226B, (−)-4-((8-methyl-7-(trifluoromethyl)-7,8-dihydro-6H-pyrimido [5,4-b] [1, 4]oxazin-2-yl)amino) benzonitrile] | > 3000
27 | COc1cc(Nc2ncc3c(n2)N(C)C(C2(C(F)(F)F)CC2)CO3)cnc1-n1cnc(C)c1 (single isomer, unassigned; (-)) [Example 247A] | 252
28 | Cc1cn(-c2ccc(Nc3ncc4c(n3)N(C)C(C)CO4)cn2)cn1 (single isomer, unassigned; (-)) [Example 194B] | > 3000
29 | Cc1cn(-c2ccc(Nc3ncc4c(n3)N(C)C(c3ccccc3)CO4)cc2F)cn1 (single isomer, unassigned; (-)) [Example 25B] | 334
30 | Cc1cn(-c2ccc(Nc3ncc4c(n3)N(C)C(c3ccc(F)cc3C(F)(F)F)CO4)cc2F)cn1 (single isomer, unassigned; (+)) [Example 99A] | 206
31 | COc1cc(Nc2ncc3c(n2)N(C)C(c2ccc(Cl)cc2C(F)(F)F)CO3)ccc1-c1ccnc(C)c1 (single isomer, unassigned; (+)) [Example 107B] | 174
32 | Cc1cc(-c2ccc(Nc3ncc4c(n3)N(C)C(c3ccccc3C)CO4)cc2)ccn1 (single isomer, unassigned; (+)) [Example 29B] | 68
33 | Cc1cn(-c2ccc(Nc3ncc4c(n3)N3CCOC[C@H]3CO4)cc2F)cn1 [Example 299] | > 3000
34 | COc1ccc(C2COc3cnc(Nc4ccc(-n5cnc(C)c5)c(OC)c4)nc3N2C)c(C)c1 (racemic) [Example 92] | 27
35 | COC[C@H]1COc2cnc(Nc3ccc(-n4cnc(C)c4)c(F)c3)nc2N1C [Example 113] | 331
36 | COc1cc(Nc2ncc3c(n2)N(C)[C@H](c2ccccc2)CO3)ccc1-n1cnc(C)c1 [Example 22A, (R)—N-(3-methoxy-4-(4-methyl-1H-imidazol-1-yl)phenyl)-8-methyl-7-phenyl-7,8-dihydro-6H-pyrimido[5,4-b][1,4]oxazin-2-amine] | 87
37 | COc1ccc(Cl)c(C2COc3cnc(Nc4cnc(-n5cnc(C)c5)c(OC)c4)nc3N2C)c1 (single isomer, unassigned; (+)) [Example 208A] | 20
38 | COc1cc(Nc2ncc3c(n2)N(C)[C@H](COc2ccccc2)CO3)ccc1-n1cnc(C)c1 [Example 201] | 143
39 | Cc1cc(-c2ccc(Nc3ncc4c(n3)N(C)C(c3ccccc3)CO4)cc2F)ccn1 (racemic) [Example 27] | 374
40 | Cc1cn(-c2ccc(Nc3ncc4c(n3)N(C)C(c3cc(F)ccc3C(F)(F)F)CO4)cc2F)cn1 (single isomer, unassigned; (-)) [Example 104A] | 526
41 | Cc1cn(-c2ccc(Nc3ncc4c(n3)N(C)C(c3ccc(F)cc3)CO4)cc2F)cn1 (single isomer, unassigned; (-)) [Example 58B] | 1950
42 | Cc1cc(-c2ccc(Nc3ncc4c(n3)N(C)C(c3cc(F)c(F)c(F)c3)CO4)cc2F)ccn1 (racemic) [Example 36] | 162
43 | Cc1cc(-c2ccc(Nc3ncc4c(n3)N(C)C(c3ccccc3)CO4)cc2)ccn1 (racemic) [Example 24] | 155
44 | COc1cc(Nc2ncc3c(n2)N(C)C(c2ccccc2C)CO3)ccc1-c1ccnc(C)c1 (single isomer, unassigned; (+)) [Example 35B] | 35
45 | COc1cc(Nc2ncc3c(n2)N(C)C(c2cc(F)c(F)c(F)c2)CO3)cnc1-n1cnc(C)c1 (single isomer, unassigned; (-)) [Example 182B] | 176
46 | COc1cc(Nc2ncc3c(n2)N(C)C(C(F)(F)F)CO3)ncc1-n1cnc(C)c1 (single isomer, unassigned; (+)) [Example 236A] | > 3000
47 | Cc1cn(-c2ccc(Nc3ncc4c(n3)N(C)C(c3ccc(F)cc3)CO4)cc2F)cn1 (single isomer, unassigned; (+)) [Example 58A] | 28
48 | COc1cc(Nc2ncc3c(n2)N(C)C(C2(C(F)(F)F)CC2)CO3)ccc1-n1cnc(C)c1 (single isomer, unassigned; (-)) [Example 245A] | 216
49 | COc1cc(Nc2ncc3c(n2)N(C)C(c2cc(F)cc(F)c2)CO3)cnc1-n1cnc(C(F)(F)F)c1 (single isomer, unassigned; (-)) [Example 206B] | 704
50 | COc1cc(Nc2ncc3c(n2)N(C)C(C2CCC(F)(F)CC2)CO3)ccc1-n1cnc(C)c1 (single isomer, unassigned; (-)) [Example 216A] | 320
